We go through 1 compound from PMC3515450, “Mechanistic and Structural Understanding of Uncompetitive Inhibitors of Caspase-6” (PLoS ONE, 2012).

Each structure is given as a SMILES string. A value given as a limit tells only on which side of the number the result lay.

One test deals with T1, apo-caspase-6 (Homo sapiens, UniProt P55212).
T1 construct: Residues 24-179 and 194-293 from caspase-6 cDNA (Origene) were cloned into pET-24b and pET-23b vectors; 6x histidine tag; made in house; host or cells: E. coli (as above), BirA co-expressed
T1 sequence (P55212 24-179): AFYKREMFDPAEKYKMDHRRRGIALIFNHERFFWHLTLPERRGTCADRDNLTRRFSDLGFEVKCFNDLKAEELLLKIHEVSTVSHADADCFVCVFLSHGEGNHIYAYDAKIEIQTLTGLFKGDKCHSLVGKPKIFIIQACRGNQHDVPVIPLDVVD
T1 sequence (P55212 194-293): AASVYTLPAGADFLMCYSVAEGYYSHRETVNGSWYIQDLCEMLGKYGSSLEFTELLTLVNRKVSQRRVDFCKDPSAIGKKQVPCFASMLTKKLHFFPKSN
Nature of the test: SPR binding to apo-caspase-6. Particulars: Rmax locked to control compound. As to the method:
For SPR experiments, caspase-6 was cloned to include a C-terminal avi-tag (Avidity) and expressed and purified as above, except that biotin ligase (BirA) was co-expressed during fermentation. […] Avi-tagged zymogen C163A-caspase-6 was processed to mature C163A-caspase-6 by the addition of active caspase-3 and caspase-6. Chip preparation for neutravidin-based capture was performed as previously described using either a Biacore T100 or Biacore 3000 instrument (GE Healthcare). Running buffer was 50 mM HEPES pH 7.2, 100 mM MgSO4, 30 mM NaCl, 1 mM TCEP, 0.01% Triton X-100, 1% PEG-3350, 2.5% DMSO, and the instrument was set for 20 degrees C. After capture one flow cell of apo-caspase-6 was exposed to a continuous flow of 20 µM VEID-FMK. A rise in signal could be detected for the binding/reacting of the VEID-FMK and exposure was continued until no additional rise in response was observed (∼45 minutes) indicating full saturation of all binding sites. There was no observed decrease in signal upon washing, indicating the reaction was irreversible. […] Fluorescent substrates were too limiting in solubility and quantity to be added to the running buffer, so substrates were mixed at a concentration equal to their Kmapp with 3 and injected together over the indicated surfaces. […]

The target of the next test is T2, caspase-3 (Homo sapiens, UniProt P42574).
T2 construct: as the catalytic domain consisting of large p20 and small p10 subunits without prodomain; made in house
T2 sequence (P42574 29-175 limits assumed): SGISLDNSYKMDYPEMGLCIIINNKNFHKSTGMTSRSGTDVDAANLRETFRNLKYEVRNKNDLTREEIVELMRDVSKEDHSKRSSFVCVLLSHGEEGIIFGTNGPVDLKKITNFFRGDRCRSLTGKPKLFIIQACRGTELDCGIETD
T2 sequence (P42574 176-277 limits assumed): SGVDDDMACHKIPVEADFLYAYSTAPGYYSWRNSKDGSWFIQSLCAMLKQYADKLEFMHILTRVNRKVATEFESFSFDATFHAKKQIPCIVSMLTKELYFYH
Nature of the test: Caspase-3 enzymatic assay with divalent R110 substrates. The class given is biochemical. As to the method: (§1) The in vitro enzymatic caspase assays utilize synthetic tetrapeptide substrates labeled with the fluorophores Rhodamine110 (R110) or 7-amino-4-methylcoumarin (AMC) at the P1 aspartic acid (Asp) residue. All assays were performed in 384-well plates in 12 µL reaction volume consisting of enzyme, substrate and indicated concentration of inhibitor or DMSO in assay buffer (50 mM HEPES [pH 7.0], 25 mM MgSO4, 0.5 mM EGTA, 5 mM Glutathione (GSH), 0.01% Triton X-100 containing 0.1% Bovine Gamma Globulin (BGG)). All inhibitors were serially diluted in 100% DMSO prior to dilution in assay buffer and transfer to assay plate. DMSO was diluted into assay buffer similarly for blank wells (no enzyme or compound) and final DMSO concentration was 1%. The concentration of caspase-6 used in enzymatic reactions typically varied between 1–10 nM depending on substrate used. Unless otherwise indicated, substrate concentration was within 3-fold of the determined Kmapparent (5 µM (Ac-VEID)2R110 [Kmapp = 8 µM]; 5 µM (Ac-DEVD)2R110 [Kmapp = 8 µM]; 25 µM (Ac-IETD)2R110 [Kmapp = 70 µM]; 25 µM (Ac-WEHD)2R110 [Kmapp = 70 µM]; 10µM Ac-VEID-AMC [Kmapp = 16µM]; 5 µM Ac-VEID-R110 [Kmapp = 8 µM]). The concentration of substrate utilized in selectivity assays for each caspase isoform was also held as close to Kmapparent as reasonably achievable (Table S1). Caspases-3 and -7 were expressed and purified at Genentech as the catalytic domain consisting of large p20 and small p10 subunits without prodomain. For all caspase enzymatic assays, the reaction plate was incubated at room temperature for 40 minutes and then read on Envision (Perkin Elmer) fluorescent plate reader at excitation/emission wavelengths of 485/535 nm (R110) or 350/450 nm (AMC).
The endpoint fluorescent emission (RFU) in each well was plotted as a function of inhibitor concentration and the 50% inhibition (IC50) values were determined using a nonlinear least squares fit of the data to a four parameter equation using Prism 5.0 software (GraphPad Software, San Diego, CA). […]

A further test concerns the target T3, caspase-6 (Homo sapiens, UniProt P55212).
T3 construct: Residues 24-179 and 194-293 from caspase-6 cDNA (Origene) were cloned into pET-24b and pET-23b vectors; 6x histidine tag (C); made in house; host or cells: E. coli BL21 (DE3) pLysS
T3 sequence (P55212 24-179): T1 sequence (P55212 24-179)
T3 sequence (P55212 194-293): T1 sequence (P55212 194-293)
The experiment in a line: Steady-state Michaelis-Menten kinetic analysis of caspase-6. The class given is biochemical. As to the method: as §1
The endpoint fluorescent emission (RFU) in each well was plotted as a function of inhibitor concentration and the 50% inhibition (IC50) values were determined using a nonlinear least squares fit of the data to a four parameter equation using Prism 5.0 software (GraphPad Software, San Diego, CA). […] Ki values for Compound 3 were calculated using this equation: Ki = IC50/(Km/[S] +1). Concentration-response curves for each inhibitor were normalized to zero and 100% based on no enzyme or DMSO control, respectively. For steady-state kinetic analysis, initial reaction velocity (RFU/minute) was plotted against substrate concentration at each inhibitor concentration and the data was fit to a hyperbolic Michaelis-Menten model using Prism 5.0 software. Km (µM) and Vmax (RFU/minute) were calculated by using this equation: v = Vmax • [S]/Km+[S] where v = initial reaction velocity at indicated substrate concentration (S). Vmax values were normalized to zero and 100% based on no enzyme or DMSO control, respectively.

For the compound `COc1ccc(-c2cc(C(=O)N[C@@H](CO)Cc3cccc(C#N)c3)co2)cc1OC` [Compound 3], on apo-caspase-6, the Kd amounted to 192 µM. Further, the concentration for half-maximal inhibition (IC50) is over 100 µM against caspase-3 (caspase-3, (DEVD)2R110 substrate) and over 100 µM at caspase-3 (caspase-3, (VEID)2R110 substrate). Besides, the “Vmax (% of DMSO control) for (VEID)2R110” value at caspase-6 (3 nM of 3) was 77.51 % of DMSO control; at caspase-6 (10 nM of 3), 55.35 % of DMSO control; on caspase-6 (30 nM of 3) it was 31.09 % of DMSO control; on caspase-6 (100 nM of 3) it was 14.10 % of DMSO control. The mechanism of inhibition result on caspase-6 ((DEVD)2R110 substrate) and at caspase-6 ((VEID)2R110 substrate) was “uncompetitive” in each case.
